Assay results published in US8124381B2, “Process and materials for production of glucosamine and N-acetylglucosamine” (Arkion Life Sciences, priority 2002, dated 2012).
“Also recorded” adds a separate entry of the source.

Experiments:
[1] = target: E. coli GlmS mutant GlmS*69 (Escherichia coli, UniProt P17169); experiment: GlmS inhibition and Michaelis-Menten kinetics; assay type: biochemical; conditions: read-out: Km (fructose-6-P)
Procedure: (§1) Different glucosamine synthetase enzymes, including native B. subtillus GlmS, native E. coli GlmS and mutant E. coli GlmS, were studied in vitro. Cells of various E. coli strains were grown in the M9A medium, harvested, and frozen. Cells extracts were prepared and the glucosamine synthetases were characterized and compared.
(§2) Enzyme sensitivities to the reaction product glucosamine-6-P were examined. […] This figure highlights the dramatic difference between the wild type GlmS and these mutant GlmS strains.
(§3) The Mutants 2123-54 and the B. subtilis enzyme have higher Ki values (Table 6). Measured Ki constants for several of these mutants are 4 to 8 times the value for the native enzyme in strain 2123-12. From shake flask studies it is apparent that decreased sensitivity to glucosamine-6-P allows higher glucosamine levels to accumulate.
(§4) These values are slightly higher than those obtained with the native enzyme.

[2] = target: E. coli GlmS mutant GlmS*110 (Escherichia coli, UniProt P17169); experiment: GlmS inhibition and Michaelis-Menten kinetics; assay type: biochemical; conditions: read-out: Km (fructose-6-P)
Procedure: as §1, §2, §3, §4

E. coli 7107-18 = experiment: Effects of N-acetyl glucosamine on E. coli 7107-18; assay type: cell-based; conditions: 62 g/L N-acetyl glucosamine in M9A-glucose (40 g/L), also medium pre-incubated more than eight hours
Text: Cells were inoculated into […]-glucose (40 g/L) containing 62 g/L N-acetyl glucosamine.

[3] = Degradation in hydrochloric acid at 90-100 C based on ammonia formation; assay type: physicochemical; conditions: 30% hydrochloric acid, 90 C, 3 hours
Procedure: Glucosamine degradation was examined at 90° C. and 100° C. using 5% and 10% glucosamine hydrochloride (w/w) with 12% and 20% hydrochloric acid by weight. Samples were incubated from 1-24 hours and assayed enzymatically for ammonia using glutamate dehydrogenase. […] Glucosamine degradation is based on ammonia formation.
N-acetylglucosamine was hydrolyzed to glucosamine at 90° C. using the hybridization oven. The reaction was carried out inside a screw capped glass tube. The 30% hydrochloric acid (30 g) was preincubated at 90° C. for 1 hour. After this 10 g solid N-acetylglucosamine was added, quickly dissolved, and a To sample taken. Samples were taken at 30-minute intervals over the next three hours. […] Samples were analyzed for ammonia enzymatically.

[4] = Solubility of N-acetylglucosamine in water miscible solvents; assay type: physicochemical; conditions: IPA, ethanol, methanol, acetone, tetrahydrofuran, dimethylsulfoxide, dimethylformamide, dioxane, acetonitrile
Text: Recovering N-acetylglucosamine-containing solids from the fermentation broth can be enhanced by contacting N-acetylglucosamine in the broth with a water miscible solvent. […] Therefore, by introduction of such a water miscible solvent into the broth, the N-acetylglucosamine will become less soluble and will further recovery.

[5] = Stability of N-acetylglucosamine in M9A medium
Procedure: The stability of N-acetylglucosamine was tested in an experiment similar to the glucosamine degradation studies. The stability of 80 and 40 g l^−1 N-acetyl glucosamine at pH 5.5 and 7.0 was monitored in medium M9A-without glucose over a period of two days.

[6] = Heat stability of purified solid N-acetylglucosamine at 105 C; assay type: physicochemical; conditions: 98% pure sample, 2 hours at 105 C
[7] = Stability of NAG in fermentation at 37 C and pH 7.0; assay type: physicochemical; conditions: after cessation of glucose feed at 37 C and pH 7.0
Text: The use of lower temperature and pH were key factors in stabilizing the GLcN fermentation, primarily due to the labile nature of GLcN at higher pH and temperature. However, it was shown that NAG was stable at neutral pH. Fermentation for NAG production was operated in the pH range of 6.7 to 7.0 throughout the program.

[8] = target: glucose-6-P dehydrogenase (zwf) (Escherichia coli, UniProt P0AC53, A9V); experiment: Effect of phosphorylated amino sugars on glucose-6-P dehydrogenase; assay type: biochemical; conditions: in vitro, FIG. 16
glucose-6-P dehydrogenase (zwf), sequence (P0AC53 whole entry A9V): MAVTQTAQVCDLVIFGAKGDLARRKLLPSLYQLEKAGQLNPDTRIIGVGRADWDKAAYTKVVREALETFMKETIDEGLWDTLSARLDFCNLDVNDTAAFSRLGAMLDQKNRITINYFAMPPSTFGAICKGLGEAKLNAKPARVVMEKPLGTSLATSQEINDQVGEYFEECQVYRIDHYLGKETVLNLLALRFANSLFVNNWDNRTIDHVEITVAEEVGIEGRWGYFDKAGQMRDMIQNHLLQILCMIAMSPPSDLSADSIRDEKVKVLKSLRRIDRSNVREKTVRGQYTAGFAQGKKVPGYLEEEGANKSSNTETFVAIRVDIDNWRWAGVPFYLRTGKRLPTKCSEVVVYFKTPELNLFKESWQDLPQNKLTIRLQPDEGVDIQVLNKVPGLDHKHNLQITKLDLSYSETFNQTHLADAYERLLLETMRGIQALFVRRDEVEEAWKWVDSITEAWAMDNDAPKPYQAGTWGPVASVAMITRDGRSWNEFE

[9] = target: glucosamine N-acetyltransferase (Saccharomyces cerevisiae, UniProt P43577); experiment: Product inhibition of glucosamine N-acetyltransferase; assay type: biochemical
glucosamine N-acetyltransferase, sequence (P43577 whole entry): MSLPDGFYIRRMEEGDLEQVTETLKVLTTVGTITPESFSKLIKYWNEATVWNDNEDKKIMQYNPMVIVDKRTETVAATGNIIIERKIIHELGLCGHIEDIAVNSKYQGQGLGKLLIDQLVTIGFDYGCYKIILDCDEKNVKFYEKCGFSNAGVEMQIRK

[10] = target: T1, E. coli glucosamine synthase GlmS*54 (Escherichia coli, UniProt P17169, A39T/G472S/R250C); experiment: Effects of phosphorylated sugars on glucosamine synthase; assay type: biochemical
T1 construct: made in house; host or cells: E. coli 7107-18 (printed '7017-18'; T7-glmS*54 integrated at galK) and strains derived from it; crude extract
Procedure: (§5) Glucosamine synthetase activity was examined in the presence of various phosphorylated sugars. Crude enzyme extracts was prepared from cells of 7017-18 grown in shake flasks for 24 hours with lactose induction.

[11] = target: phosphoglucoisomerase (Pgi) (Escherichia coli, UniProt P0A6T1); experiment: Effect of phosphorylated amino sugars on phosphoglucoisomerase activity; assay type: biochemical; conditions: in vitro, FIG. 15
phosphoglucoisomerase (Pgi), sequence (P0A6T1 whole entry): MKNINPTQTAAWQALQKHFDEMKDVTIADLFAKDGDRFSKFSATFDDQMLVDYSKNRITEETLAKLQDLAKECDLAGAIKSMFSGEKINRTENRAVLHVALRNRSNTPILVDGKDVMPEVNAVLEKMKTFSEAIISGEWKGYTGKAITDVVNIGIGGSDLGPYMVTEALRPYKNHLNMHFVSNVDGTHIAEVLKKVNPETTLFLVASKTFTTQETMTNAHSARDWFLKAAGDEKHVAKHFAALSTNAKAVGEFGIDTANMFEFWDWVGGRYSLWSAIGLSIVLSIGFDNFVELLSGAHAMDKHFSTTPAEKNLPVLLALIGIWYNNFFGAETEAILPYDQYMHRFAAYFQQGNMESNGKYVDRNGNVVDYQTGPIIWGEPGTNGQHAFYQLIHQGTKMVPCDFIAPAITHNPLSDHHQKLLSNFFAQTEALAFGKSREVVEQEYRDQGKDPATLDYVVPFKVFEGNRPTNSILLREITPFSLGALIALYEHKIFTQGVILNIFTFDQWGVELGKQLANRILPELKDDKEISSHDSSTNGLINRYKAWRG
Text: Therefore, effects of glucosamine-6-P and N-acetylglucosamine-6-P on several of the enzymes were examined.

[12] = target: E. coli glucosamine synthase GlmS*54, SEQ ID NO:6 (Ala39Thr, Arg250Cys, Gly472Ser) (Escherichia coli, UniProt P17169, A39T/G472S/R250C); experiment: Effects of phosphorylated sugars on glucosamine synthase, crude extract of lactose-induced 7107-18 cells; assay type: biochemical; conditions: 10 mM or relatively high concentration
E. coli glucosamine synthase GlmS*54, SEQ ID NO:6 (Ala39Thr, Arg250Cys, Gly472Ser), sequence (P17169 whole entry A39T/R250C/G472S): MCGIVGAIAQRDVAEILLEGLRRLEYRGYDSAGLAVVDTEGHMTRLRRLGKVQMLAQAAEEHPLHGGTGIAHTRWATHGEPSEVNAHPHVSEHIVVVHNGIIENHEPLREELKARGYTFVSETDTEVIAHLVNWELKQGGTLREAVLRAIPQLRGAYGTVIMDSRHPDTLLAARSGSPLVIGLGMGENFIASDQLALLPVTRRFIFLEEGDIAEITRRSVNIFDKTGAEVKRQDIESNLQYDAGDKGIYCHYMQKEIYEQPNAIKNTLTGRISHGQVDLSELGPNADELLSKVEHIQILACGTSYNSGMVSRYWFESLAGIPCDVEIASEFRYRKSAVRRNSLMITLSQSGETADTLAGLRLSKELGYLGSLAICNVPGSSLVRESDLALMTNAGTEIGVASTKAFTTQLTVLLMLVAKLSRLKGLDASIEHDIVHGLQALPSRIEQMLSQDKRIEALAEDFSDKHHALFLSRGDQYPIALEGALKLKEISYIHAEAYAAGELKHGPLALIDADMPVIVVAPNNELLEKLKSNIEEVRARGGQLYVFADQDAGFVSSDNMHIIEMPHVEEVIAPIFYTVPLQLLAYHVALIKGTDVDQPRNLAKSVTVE
Procedure: as §5

[13] = substrate: NC(=O)CC[C@H](N)C(=O)O; experiment: GlmS (glucosamine synthase) inhibition and Michaelis-Menten kinetics, crude extract of strain 2123-12; assay type: biochemical, Escherichia coli; conditions: other: crude extracts, nonlinear regression
Procedure: as §1, §2, §3, §4

[14] = substrate: O=P(O)(O)OC[C@H]1OC(O)(CO)[C@@H](O)[C@@H]1O; experiment: as above; assay type: biochemical, Escherichia coli; conditions: other: crude extracts, nonlinear regression
Procedure: as §1, §2, §3, §4

[15] = substrate: NC(=O)CC[C@H](N)C(=O)O; experiment: GlmS inhibition and Michaelis-Menten kinetics, crude extract of strain 2123-54; assay type: biochemical, Escherichia coli; conditions: other: crude extracts
Procedure: as §1, §2, §3, §4

[16] = substrate: O=P(O)(O)OC[C@H]1OC(O)(CO)[C@@H](O)[C@@H]1O; experiment: as above; assay type: biochemical, Escherichia coli; conditions: other: crude extracts
Procedure: as §1, §2, §3, §4

[17] = test system: glucosamine synthetase (GlmS); experiment: Thermal stability of GlmS enzymes (denaturation at 50 C); assay type: biochemical, E. coli; conditions: crude extracts incubated at 50 C, sampled over 90 minutes, assayed at 25 C
Procedure: Denaturation at 50° C. was used to measure possible differences in thermal stability of different GlmS enzymes. Crude extracts were incubated at 50° C. and sampled over a 90-minute period. The samples were assayed for glucosamine synthetase activity at 25° C. with saturating levels of all substrates.

[18] = substrate: O=P(O)(O)OC[C@H]1OC(O)(CO)[C@@H](O)[C@@H]1O; experiment: purified protein, by the assay type

## O=P(O)(O)OC[C@H]1OC(O)(CO)[C@@H](O)[C@@H]1O (some centres unmarked) [fructose-6-P, fructose-6-phosphate]
[1]
  Km: 350 µM
[2]
  Km: 410 µM

## CC(=O)N[C@@H](C=O)[C@@H](O)[C@H](O)[C@H](O)CO [N-acetylglucosamine, 2-acetamido-2-deoxy-D-glucose]
E. coli 7107-18
  growth inhibition: No significant growth inhibition
[3]
  degradation based on ammonia levels: around 3.5%
[4]
  solubility in water miscible solvents: very insoluble
[5]
  drop in pH during incubation: no significant drop in pH
[5]; 80 and 40 g l-1, pH 5.5 and 7.0, M9A without glucose, two days
  degradation of N-acetyl glucosamine: No significant degradation
[5]; M9A medium, 48 hours
  amber color formation: No such color formation
[6]
  color change on heating: turned light brown
  weight loss on heating: 4.7%
[7]
  time NAG was stable: at least 50 hours

## CC(=O)N[C@H]1C(O)O[C@H](COP(=O)(O)O)[C@@H](O)[C@@H]1O (some centres unmarked) [N-acetylglucosamine-6-P, N-acetylglucosamine-6-phosphate]
[8]
  inhibition of glucose-6-P dehydrogenase (zwf): does not significantly inhibit
[9]
  product inhibition of glucosamine N-acetyltransferase: did not show any significant product inhibition
[10]
  activity at 10000 µM: 100%
  activity at 20000 µM: 100%
[11]
  inhibition of phosphoglucoisomerase (Pgi): significantly less so; also recorded: does not significantly inhibit

## N[C@H]1[C@@H](OP(=O)(O)O)O[C@H](CO)[C@@H](O)[C@@H]1O [glucosamine-1-P, glucosamine-1-phosphate]
[12]
  inhibition of glucosamine synthetase (in words): inhibited the enzyme at 10 mM

B1: E. coli GlmS (glucosamine-6-phosphate synthase), wild type, SEQ ID NO:2 (strain 2123-12) (Escherichia coli K-12) (protein)
chain: CGIVGAIAQRDVAEILLEGLRRLEYRGYDSAGLAVVDAEGHMTRLRRLGKVQMLAQAAEEHPLHGGTGIAHTRWATHGEPSEVNAHPHVSEHIVVVHNGIIENHEPLREELKARGYTFVSETDTEVIAHLVNWELKQGGTLREAVLRAIPQLRGAYGTVIMDSRHPDTLLAARSGSPLVIGLGMGENFIASDQLALLPVTRRFIFLEEGDIAEITRRSVNIFDKTGAEVKRQDIESNLQYDAGDKGIYRHYMQKEIYEQPNAIKNTLTGRISHGQVDLSELGPNADELLSKVEHIQILACGTSYNSGMVSRYWFESLAGIPCDVEIASEFRYRKSAVRRNSLMITLSQSGETADTLAGLRLSKELGYLGSLAICNVPGSSLVRESDLALMTNAGTEIGVASTKAFTTQLTVLLMLVAKLSRLKGLDASIEHDIVHGLQALPSRIEQMLSQDKRIEALAEDFSDKHHALFLGRGDQYPIALEGALKLKEISYIHAEAYAAGELKHGPLALIDADMPVIVVAPNNELLEKLKSNIEEVRARGGQLYVFADQDAGFVSSDNMHIIEMPHVEEVIAPIFYTVPLQLLAYHVALIKGTDVDQPRNLAKSVTVE
notes: made in house; host or cells: E. coli strain 2123-12 (T7-glmS integrated in the chromosome), crude cell extract
[13]
  Km: 170 µM
[14]
  Km: 200 µM

B2: E. coli GlmS mutant GlmS*54, SEQ ID NO:6 (Ala39Thr, Arg250Cys, Gly472Ser) (strain 2123-54) (Escherichia coli K-12; A39T/G472S/R250C) (protein)
chain: CGIVGAIAQRDVAEILLEGLRRLEYRGYDSAGLAVVDTEGHMTRLRRLGKVQMLAQAAEEHPLHGGTGIAHTRWATHGEPSEVNAHPHVSEHIVVVHNGIIENHEPLREELKARGYTFVSETDTEVIAHLVNWELKQGGTLREAVLRAIPQLRGAYGTVIMDSRHPDTLLAARSGSPLVIGLGMGENFIASDQLALLPVTRRFIFLEEGDIAEITRRSVNIFDKTGAEVKRQDIESNLQYDAGDKGIYCHYMQKEIYEQPNAIKNTLTGRISHGQVDLSELGPNADELLSKVEHIQILACGTSYNSGMVSRYWFESLAGIPCDVEIASEFRYRKSAVRRNSLMITLSQSGETADTLAGLRLSKELGYLGSLAICNVPGSSLVRESDLALMTNAGTEIGVASTKAFTTQLTVLLMLVAKLSRLKGLDASIEHDIVHGLQALPSRIEQMLSQDKRIEALAEDFSDKHHALFLSRGDQYPIALEGALKLKEISYIHAEAYAAGELKHGPLALIDADMPVIVVAPNNELLEKLKSNIEEVRARGGQLYVFADQDAGFVSSDNMHIIEMPHVEEVIAPIFYTVPLQLLAYHVALIKGTDVDQPRNLAKSVTVE
notes: made in house; host or cells: E. coli strain 2123-54 (lacZ::T7-glmS*54), crude cell extract
[15]
  Km: 730 µM
[16]
  Km: 640 µM

B3: WT E. coli GlmS: wild-type E. coli glucosamine-6-phosphate synthase (SEQ ID NO:2), expressed in strain 2123-12 (protein, listed as Escherichia coli)
chain: MCGIVGAIAQRDVAEILLEGLRRLEYRGYDSAGLAVVDAEGHMTRLRRLGKVQMLAQAAEEHPLHGGTGIAHTRWATHGEPSEVNAHPHVSEHIVVVHNGIIENHEPLREELKARGYTFVSETDTEVIAHLVNWELKQGGTLREAVLRAIPQLRGAYGTVIMDSRHPDTLLAARSGSPLVIGLGMGENFIASDQLALLPVTRRFIFLEEGDIAEITRRSVNIFDKTGAEVKRQDIESNLQYDAGDKGIYRHYMQKEIYEQPNAIKNTLTGRISHGQVDLSELGPNADELLSKVEHIQILACGTSYNSGMVSRYWFESLAGIPCDVEIASEFRYRKSAVRRNSLMITLSQSGETADTLAGLRLSKELGYLGSLAICNVPGSSLVRESDLALMTNAGTEIGVASTKAFTTQLTVLLMLVAKLSRLKGLDASIEHDIVHGLQALPSRIEQMLSQDKRIEALAEDFSDKHHALFLGRGDQYPIALEGALKLKEISYIHAEAYAAGELKHGPLALIDADMPVIVVAPNNELLEKLKSNIEEVRARGGQLYVFADQDAGFVSSDNMHIIEMPHVEEVIAPIFYTVPLQLLAYHVALIKGTDVDQPRNLAKSVTVE
[17]
  thermal stability at 50 C: little significant difference in thermal stability

B4: Bacillus subtilis GlmS, wild type, SEQ ID NO:16 (Bacillus subtilis subsp. subtilis str. 168) (protein)
chain: CGIVGYIGQLDAKEILLKGLEKLEYRGYDSAGIAVANEQGIHVFKEKGRIADLREVVDANVEAKAGIGHTRWATHGEPSYLNAHPHQSALGRFTLVHNGVIENYVQLKQEYLQDVELKSDTDTEVVVQVIEQFVNGGLETEEAFRKTLTLLKGSYAIALFDNDNRETIFVAKNKSPLLVGLGDTFNVVASDAMAMLQVTNEYVELMDKEMVIVTDDQVVIKNLDGDVITRASYIAELDASDIEKGTYPHYMLKETDEQPVVMRKIIQTYQDENGKLSVPGDIAAAVAEADRIYIIGCGTSYHAGLVGKQYIEMWANVPVEVHVASEFSYNMPLLSKKPLFIFLSQSGETADSRAVLVQVKALGHKALTITNVPGSTLSREADYTLLLHAGPEIAVASTKAYTAQIAVLAVLASVAADKNGINIGFDLVKELGIAANAMEALCDQKDEMEMIAREYLTVSRNAFFIGRGLDYFVCVEGALKLKEISYIQAEGFAGGELKHGTIALIEQGTPVFALATQEHVNLSIRGNVKEVAARGANTCIISLKGLDDADDRFVLPEVNPALAPLVSVVPLQLIAYYAALHRGCDVDKPRNLAKSVTVE
[18]
  Km: 620 µM
